Series [1] concerns Rattus norvegicus. Description: AUC(last) in Sprague-Dawley rat at 100 mg/kg, po after 0 to 48 hrs by LC-MS/MS analysis. Format: ADME, organism-based. Further details: dose 100 mg/kg, time 0 - last, route oral. To be noted: in vivo.
A short description of series [2]: Selectivity index, ratio of CC50 for monkey kidney VERO cells to IC50 for chloroquine sensitive Plasmodium falciparum 3D7 infected in human erythrocytes. Type of series: functional.
The nature of series [3]: Selectivity index, ratio of CC50 for monkey kidney VERO cells to IC50 for chloroquine resistant Plasmodium falciparum K1 infected in human erythrocytes. Format: functional.
Series [4] relates to MCF7. Description: Upregulation of p53 level in human MCF7 cells at antiplasmodial IC50 after 48 hrs by immnublotting method. Type of series: functional, cell-based. To be noted: TDE = time-dependent effect.
Series [5] is described as follows: Mean residence time(last) in Sprague-Dawley rat at 100 mg/kg, po after 0 to 48 hrs by LC-MS/MS analysis. Format: ADME, organism-based. To be noted: in vivo.
Series [6] in a line: Tmax in Sprague-Dawley rat at 100 mg/kg, po after 0 to 48 hrs by LC-MS/MS analysis. Type of series: ADME, organism-based. To be noted: in vivo.
Series [7] concerns Rattus norvegicus. Description: Apparent oral volume of distribution in Sprague-Dawley rat at 100 mg/kg, po after 0 to 48 hrs by LC-MS/MS analysis. Format: ADME, organism-based. To be noted: in vivo.
Series [8] can be described thus: Apparent oral clearance in Sprague-Dawley rat at 100 mg/kg, po after 0 to 48 hrs by LC-MS/MS analysis. The settings on record: in vivo. Type of series: ADME, organism-based.
Series [9] deals with Plasmodium falciparum. Description: Antiplasmodial activity against chloroquine sensitive Plasmodium falciparum 3D7 infected in human erythrocytes incubated for 72 hrs by SYBR Green1-based fluorescence analysis. Type of series: functional, organism-based. To be noted: 3D7, 72 h.
Series [10] is described as follows: Cmax in Sprague-Dawley rat at 100 mg/kg, po after 0 to 48 hrs by LC-MS/MS analysis. Format: ADME, organism-based. Further details: dose 100 mg/kg, route oral. The settings on record: in vivo.
The test system of series [11] is MCF7. Description: Induction of p53 protein expression in human MCF7 cells at antiplasmodial IC50 after 36 hrs by luciferase reporter assay relative to control relative to doxorubicin. Format: functional. In general terms: In a reporter assay the amount or activity of a reporter protein is the signal.
Series [12] relates to Plasmodium falciparum. Description: Antiplasmodial activity against chloroquine resistant Plasmodium falciparum K1 infected in human erythrocytes incubated for 72 hrs by SYBR Green1-based fluorescence analysis. The settings on record: K1, 72 h. Type of series: functional, organism-based.
In series [13] the test system is Plasmodium yoelii nigeriensis. Description: Antiplasmodial activity against multidrug-resistant Plasmodium yoelii nigeriensis infected in Swiss mouse assessed as suppression of parasitaemia at 100 mg/kg, po for 4 days by Geimsa-staining based analysis. Type of series: functional. To be noted: 96 h.
Series [14] concerns MCF7. Description: Induction of p53 protein expression in human MCF7 cells at antiplasmodial IC50 after 36 hrs by luciferase reporter assay relative to control. Format: functional.
A short description of series [15]: Cytotoxicity against monkey kidney Vero cells by resazurin assay. Type of series: cell-based. The settings on record: chlorocebus sabaeus.
The test system of another series is Mus musculus. Description: Toxicity in multidrug-resistant Plasmodium yoelii nigeriensis infected Swiss mouse assessed as mouse survival at 100 mg/kg/day, po for 4 days. Format: organism-based. To be noted: in vivo, 96 h.
Series [16] is described as follows: Resistance index, ratio of IC50 for chloroquine resistant Plasmodium falciparum K1 infected in human erythrocytes to IC50 for chloroquine sensitive Plasmodium falciparum 3D7 infected in human erythrocytes. Type of series: functional.

Each structure is given as a SMILES string.

The term MRT last denotes the average time that molecules of a dose stay in the body. One may read the Tmax as the time at which the peak concentration occurs. The term Vd/F denotes the apparent distribution volume after extravascular dosing. For orientation: CL/F means the apparent clearance, not corrected for the fraction that reaches the circulation. Usually IC50 stands for the concentration that inhibits the measured activity by half. In general, Cmax refers to the maximum level reached in the sampled fluid or tissue. As a reminder, the inhibition in vivo is the relative decrease from the control value, in per cent. One may read the CC50 as the concentration giving 50% cytotoxicity.

For the compound `CC(C)c1ccc(-c2c(C(O)(CNc3ccc(Br)cc3)c3ccc(Cl)cc3)nnn2Cc2ccccc2)cc1` (configuration not stated), the AUClast in the series with Rattus norvegicus [1] came out at 1590 ng·h/mL. The “Ratio CC50/IC50” value in [2] was 515.3; in series [3], 73.26. Further, the Activity entry in the series on MCF7 [4] is “tde”; with Mus musculus, “Non-toxic”. The MRT last in series [5] was determined as 15 h. For the same compound, in series [6], the Tmax is 4 h. In addition, the Vd/F in the series with Rattus norvegicus [7] was 1837.17 L/kg. Besides, the CL/F in [8] is 741 mL/min/kg. Moreover, the IC50 was determined as 0.3 µM with Plasmodium falciparum [9] and 2.11 µM with Plasmodium falciparum [12]. This compound also came in with a Cmax in series [10] of 212 ng/mL. For the same compound, the “fold change (FC)” value in the series on MCF7 [11] turned out to be 10; in the series on MCF7 [14], 20. In addition, the inhibition in vivo at 100 mg/kg in [13] came out at 86.8%. In [15], the CC50 amounted to 155 µM. Further, in series [16], the “Ratio IC50” value is recorded as >7.03.

Values taken from ChEMBL document CHEMBL3758173, “Identification of β-Amino alcohol grafted 1,4,5 trisubstituted 1,2,3-triazoles as potent antimalarial agents” (Eur J Med Chem, 2016).
